Experimental data taken from article PMC8225008, “Development of Non-Ethoxypropanoic Acid Type Cryptochrome Inhibitors with Circadian Molecular Clock-Enhancing Activity by Bioisosteric Replacement” (Pharmaceuticals, 2021).

Experiments:
hCRY2 = molecular target: T1, hCRY2 (Homo sapiens, UniProt Q49AN0); test: Surface plasmon resonance, CRY2; type: binding; details: SPR, His-tagged CRY2, Langmuir 1:1 model
T1 construct: GST; purchased MyBioSource; host or cells: baculovirus expression system
T1 sequence (Q49AN0 1-593): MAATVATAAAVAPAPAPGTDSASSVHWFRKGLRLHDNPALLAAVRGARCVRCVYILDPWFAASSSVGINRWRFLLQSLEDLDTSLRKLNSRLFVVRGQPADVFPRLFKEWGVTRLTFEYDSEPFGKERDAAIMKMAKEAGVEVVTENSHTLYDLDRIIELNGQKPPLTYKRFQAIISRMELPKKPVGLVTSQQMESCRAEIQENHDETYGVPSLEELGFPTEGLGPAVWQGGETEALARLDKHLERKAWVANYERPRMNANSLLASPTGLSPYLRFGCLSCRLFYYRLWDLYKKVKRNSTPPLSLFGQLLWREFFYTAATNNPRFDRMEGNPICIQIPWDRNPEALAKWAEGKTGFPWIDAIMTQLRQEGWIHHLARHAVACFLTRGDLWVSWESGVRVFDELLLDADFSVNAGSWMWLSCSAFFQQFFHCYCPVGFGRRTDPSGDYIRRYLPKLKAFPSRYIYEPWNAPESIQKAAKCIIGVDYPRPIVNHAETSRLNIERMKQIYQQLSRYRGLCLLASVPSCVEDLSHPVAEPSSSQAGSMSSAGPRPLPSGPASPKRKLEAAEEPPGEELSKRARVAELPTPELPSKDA
Method: (§1) We used a ProteOn XPR36 system (Bio-Rad, Hercules, CA, USA) equipped with a HTE sensor chip (high capacity tris-NTA for histidine-tagged […] capture, Bio-Rad) for surface plasmon resonance analyses. Purified target proteins (6xHis- and GST-tagged hCRY1 and hCRY2) were prepared by a baculovirus expression system (MyBioSource, San Diego, CA, USA). Phosphate buffered saline (PBS) plus 0.005% Tween 20 was used as the running buffer. The 6xHis-hCRY1 and 6xHis-hCRY2 proteins were immobilized onto separate channels of a HTE chip by injecting 210 μL protein sample (2.0 μg/mL) into flow cells (30 μL/min) to allow saturation. Serially diluted compound 2d samples (50–800 μM) were prepared in 4% DMSO in TBS-T buffer. […] Recorded resonance units (RU) were normalized and plotted against chemical concentration. […]
(§2) The EC50 values for luciferase reporter assay were calculated based on a logistic four-parametric equation using the mean values of intrinsic activation (SigmaPlot 10.0; Systat Software Inc., San Jose, CA, USA). The IC50 and t1/2 values for the cytochrome P450 inhibition assay and metabolic stability test were calculated by WinNonlin software (Pharsight, Mountain View, CA, USA). Pharmacokinetic parameters were calculated using non-compartmental analysis (WinNonlin v.8.3; Pharsight, Mountain View, CA, USA). […]

hCRY1 = molecular target: T2, hCRY1 (Homo sapiens, UniProt Q16526); test: Surface plasmon resonance, CRY1; type: binding; design: GST; purchased MyBioSource; host or cells: baculovirus expression system; details: SPR, His-tagged CRY1, Langmuir 1:1 model
T2 sequence (Q16526 1-586): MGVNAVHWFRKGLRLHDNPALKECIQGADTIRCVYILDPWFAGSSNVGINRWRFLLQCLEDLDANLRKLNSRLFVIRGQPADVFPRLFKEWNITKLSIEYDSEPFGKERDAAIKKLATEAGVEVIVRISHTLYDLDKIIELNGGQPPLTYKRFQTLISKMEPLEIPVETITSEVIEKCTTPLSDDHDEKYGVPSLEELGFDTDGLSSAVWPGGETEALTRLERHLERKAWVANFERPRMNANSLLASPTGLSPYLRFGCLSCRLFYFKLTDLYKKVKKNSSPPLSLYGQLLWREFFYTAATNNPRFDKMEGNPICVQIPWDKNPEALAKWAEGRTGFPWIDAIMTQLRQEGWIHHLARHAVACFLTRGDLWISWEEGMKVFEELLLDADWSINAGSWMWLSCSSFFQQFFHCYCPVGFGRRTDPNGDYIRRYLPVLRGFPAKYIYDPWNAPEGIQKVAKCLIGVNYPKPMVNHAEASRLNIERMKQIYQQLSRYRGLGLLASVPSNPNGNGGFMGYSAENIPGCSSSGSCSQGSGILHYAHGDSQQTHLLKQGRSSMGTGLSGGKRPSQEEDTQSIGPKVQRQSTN
Method: as §1, §2

Q: Which Kd (hCRY2) does the source give for `CC(=NOCc1ccc([N+](=O)[O-])cc1)c1cccc(OCC(=O)O)c1` [Compound 2d, 2-(3-(1-(((4-nitrobenzyl)oxy)imino)ethyl)phenoxy)acetic acid] here?
A: 380 µM

Q: And the Kd (hCRY1)?
A: 389 µM
